Laboratory results taken from ChEMBL document CHEMBL1240307, “A functional genomics approach to the mode of action of apratoxin A” (Nat Chem Biol, 2006).
Active and inactive are the calls of the source. No cut-off for these calls is given here.

How the values were obtained:
[1] = organism: Danio rerio; assay: Inhibition of FGFR-mediated mkp3 mRNA expression in Zebrafish embryo mid-hind brain boundary at 40 uM by in situ hybridization analysis
[2] = organism: Danio rerio; assay: Inhibition of FGFR-mediated mkp3 mRNA expression in Zebrafish embryo tailbud region at 40 uM by in situ hybridization analysis
[3] = organism: Danio rerio; assay: Inhibition of FGFR-mediated fin development in Zebrafish embryo at 40 uM by in situ hybridization method at 48-60 hrs post fertilization stage
[4] = organism: Danio rerio; assay: Inhibition of FGFR-mediated distal pectoral fin development in Zebrafish embryo at 700 nM by in situ hybridization method at 48-60 hrs post fertilization stage
[5] = organism: Danio rerio; assay: Inhibition of FGFR-mediated mkp3 mRNA expression in Zebrafish dorsal forebrain at 40 uM by in situ hybridization analysis; format: tissue-based

## Cc1c[nH]c(/C=C2\C(=O)Nc3ccccc32)c1CCC(=O)O
[1]
  inhibition: Active
[2]
  inhibition: Active
[3]
  inhibition: 76%
[4]
  inhibition: 72%
[5]
  inhibition: Active
